molecular target: CCR2 (Homo sapiens (Human), UniProt P41597); test: Calcium activity assayed on the FLIPR Tetra in HEK-Gqi5 cells stably expressing CCR2; format: cell-based; settings: FLIPR Tetra calcium assay
Sequence (P41597 whole entry, species assumed): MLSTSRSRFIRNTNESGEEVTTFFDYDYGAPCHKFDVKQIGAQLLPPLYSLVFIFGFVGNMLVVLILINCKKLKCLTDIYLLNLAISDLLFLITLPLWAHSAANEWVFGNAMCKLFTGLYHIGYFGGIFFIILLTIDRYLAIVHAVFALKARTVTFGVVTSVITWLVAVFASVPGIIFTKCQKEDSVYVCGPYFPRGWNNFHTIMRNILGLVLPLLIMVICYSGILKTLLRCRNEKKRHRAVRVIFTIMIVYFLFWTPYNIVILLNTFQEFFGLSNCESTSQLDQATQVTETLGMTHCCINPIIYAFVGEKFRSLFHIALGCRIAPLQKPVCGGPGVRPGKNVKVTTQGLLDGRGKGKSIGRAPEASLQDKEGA

CCR2 % ANTAGONISM	IC50	Structure (SMILES)
95%	3890 nM	Nc1cccc(CSc2ccc(Cl)cc2NS(=O)(=O)c2ccc(Cl)cc2)c1 [N-{2-[(3-aminobenzyl)thio]-5-chlorophenyl}-4-chlorobenzenesulfonamide]
40%	3100 nM	Nc1cccc(CSc2ccc(Cl)cc2NS(=O)(=O)c2ccccc2)c1 [N-{2-[(3-aminobenzyl)thio]-5-chlorophenyl}benzenesulfonamide]
97%	55 nM	Nc1cccc(CSc2ccc(F)cc2NS(=O)(=O)c2cc3ccccc3o2)c1 [N-{2-[(3-aminobenzyl)thio]-5-fluorophenyl}-1-benzofuran-2-sulfonamide]
100%	1400 nM	COc1ccc(SCc2cccc(N)c2)c(NS(=O)(=O)c2cc3ccccc3o2)c1 [N-{2-[(3-aminobenzyl)thio]-5-methoxyphenyl}-1-benzofuran-2-sulfonamide]
105%	676 nM	Nc1cccc(CSc2ccccc2NS(=O)(=O)c2cc3ccccc3o2)c1 [N-{2-[(3-aminobenzyl)thio]phenyl}-1-benzofuran-2-sulfonamide]
96%	39 nM	Nc1cccc(C[S+]([O-])c2ccc(Cl)cc2NS(=O)(=O)c2cc3ccccc3o2)c1 (stereo not drawn) [N-{2-[(3-aminobenzypsulfinyl]-5-chlorophenyl}-1-benzofuran-2-sulfonamide]
93%	159 nM	Nc1cccc(C[S+]([O-])c2ccc(Cl)cc2NS(=O)(=O)c2cccc(Cl)c2)c1 (stereo not drawn) [N-{2-[(3-aminobenzypsulfinyl]-5-chlorophenyl}-3-chlorobenzenesulfonamide]
90%	23 nM	Nc1cccc(CS(=O)(=O)c2ccc(Cl)cc2NS(=O)(=O)c2cc3ccccc3o2)c1 [N-{2-[(3-aminobenzypsulfonyl]-5-chlorophenyl}-1-benzofuran-2-sulfonamide]
91%	246 nM	Nc1cccc(CS(=O)(=O)c2ccc(Cl)cc2NS(=O)(=O)c2cccc(Cl)c2)c1 [N-{2-[(3-aminobenzypsulfonyl]-5-chlorophenyl}-3-chlorobenzenesulfonamide]
92%	42 nM	Nc1cccc(CSc2ccc(Cl)cc2NS(=O)(=O)c2cc3ccccc3o2)c1 [N-{2-[(3-aminobenzypthio]-5-chlorophenyl}-1-benzofuran-2-sulfonamide]
63%		NCCC[S+]([O-])c1ccc(Cl)cc1NS(=O)(=O)c1cc2ccccc2o1 (stereo not drawn) [N-{2-[(3-aminopropyl)sulfinyl]-5-chlorophenyl}-1-benzofuran-2-sulfonamide]
82%		NCCCS(=O)(=O)c1ccc(Cl)cc1NS(=O)(=O)c1cc2ccccc2o1 [N-{2-[(3-aminopropyl)sulfonyl]-5-chlorophenyl}-1-benzofuran-2-sulfonamide]
102%		NCCCSc1ccc(Cl)cc1NS(=O)(=O)c1cc2ccccc2o1 [N-{2-[(3-aminopropyl)thio]-5-chlorophenyl}-1-benzofuran-2-sulfonamide]
97%	653 nM	O=[N+]([O-])c1cccc(C[S+]([O-])c2ccccc2NS(=O)(=O)c2cc3ccccc3o2)c1 (stereo not drawn) [N-{2-[(3-nitrobenzyl)sulfinyl]phenyl}-1-benzofuran-2-sulfonamide]
83%	2130 nM	O=[N+]([O-])c1cccc(CS(=O)(=O)c2ccccc2NS(=O)(=O)c2cc3ccccc3o2)c1 [N-{2-[(3-nitrobenzyl)sulfonyl]phenyl}-1-benzofuran-2-sulfonamide]
104%	90 nM	Nc1ccc(CS(=O)(=O)c2ccc(Cl)cc2NS(=O)(=O)c2cc3ccccc3o2)cc1 [N-{2-[(4-aminobenzyl)sulfonyl]-5-chlorophenyl}-1-benzofuran-2-sulfonamide]
102%	848 nM	CC(=O)Nc1nc(CSc2ccc(Cl)cc2NS(=O)(=O)c2cc3ccccc3o2)cs1 [N-{4-[({2-[(1-benzofuran-2-ylsulfonyl)amino]-4-chlorophenyl}thio)methyl]-1,3-thiazol-2-yl}acetamide]
108%	1900 nM	O=S(=O)(Nc1cc(Cl)ccc1[S+]([O-])Cc1ncc[nH]1)c1cc2ccccc2o1 (stereo not drawn) [N-{5-chloro-2-[(1H-imidazol-2-ylmethyl)sulfinyl]phenyl}-1-benzofuran-2-sulfonamide]
109%	1350 nM	O=S(=O)(Cc1ncc[nH]1)c1ccc(Cl)cc1NS(=O)(=O)c1cc2ccccc2o1 [N-{5-chloro-2-[(1H-imidazol-2-ylmethyl)sulfonyl]phenyl}-1-benzofuran-2-sulfonamide]
93%	60 nM	O=S(=O)(Nc1cc(Cl)ccc1SCc1ncc[nH]1)c1cc2ccccc2o1 [N-{5-chloro-2-[(1H-imidazol-2-ylmethyl)thio]phenyl}-1-benzofuran-2-sulfonamide]
108%	296 nM	O=S(=O)(Nc1cc(Cl)ccc1[S+]([O-])Cc1c[nH]cn1)c1cc2ccccc2o1 (stereo not drawn) [N-{5-chloro-2-[(1H-imidazol-4-ylmethyl)sulfinyl]phenyl}-1-benzofuran-2-sulfonamide]

CCR2 % ANTAGONISM	IC50	Structure (SMILES)
106%	81 nM	O=S(=O)(Cc1c[nH]cn1)c1ccc(Cl)cc1NS(=O)(=O)c1cc2ccccc2o1 [N-{5-chloro-2-[(1H-imidazol-4-ylmethyl)sulfonyl]phenyl}-1-benzofuran-2-sulfonamide]
100%	10 nM	O=S(=O)(Nc1cc(Cl)ccc1SCc1c[nH]cn1)c1cc2ccccc2o1 [N-{5-chloro-2-[(1H-imidazol-4-ylmethyl)thio]phenyl}-1-benzofuran-2-sulfonamide]
99%	634 nM	O=S(=O)(Nc1cc(Cl)ccc1[S+]([O-])Cc1cc[nH]n1)c1cc2ccccc2o1 (stereo not drawn) [N-{5-chloro-2-[(1H-pyrazol-3-ylmethyl)sulfinyl]phenyl}-1-benzofuran-2-sulfonamide]
102%	367 nM	O=S(=O)(Cc1cc[nH]n1)c1ccc(Cl)cc1NS(=O)(=O)c1cc2ccccc2o1 [N-{5-chloro-2-[(1H-pyrazol-3-ylmethyl)sulfonyl]phenyl}-1-benzofuran-2-sulfonamide]
99%	16 nM	O=S(=O)(Nc1cc(Cl)ccc1SCc1cc[nH]n1)c1cc2ccccc2o1 [N-{5-chloro-2-[(1H-pyrazol-3-ylmethyl)thio]phenyl}-1-benzofuran-2-sulfonamide]
95%	75 nM	O=[N+]([O-])c1ccccc1C[S+]([O-])c1ccc(Cl)cc1NS(=O)(=O)c1cc2ccccc2o1 (stereo not drawn) [N-{5-chloro-2-[(2-nitrobenzyl)sulfinyl]phenyl}-1-benzofuran-2-sulfonamide]
86%	153 nM	O=S(=O)(Nc1cc(Cl)ccc1[S+]([O-])CCc1ccccn1)c1cc2ccccc2o1 (stereo not drawn) [N-{5-chloro-2-[(2-pyridin-2-ylethyl)sulfinyl]phenyl}-1-benzofuran-2-sulfonamide]
93%	197 nM	O=S(=O)(CCc1ccccn1)c1ccc(Cl)cc1NS(=O)(=O)c1cc2ccccc2o1 [N-{5-chloro-2-[(2-pyridin-2-ylethyl)sulfonyl]phenyl}-1-benzofuran-2-sulfonamide]
84%	713 nM	O=S(=O)(Nc1cc(Cl)ccc1SCCc1ccccn1)c1cc2ccccc2o1 [N-{5-chloro-2-[(2-pyridin-2-ylethyl)thio]phenyl}-1-benzofuran-2-sulfonamide]
103%	112 nM	O=S(=O)(Nc1cc(Cl)ccc1[S+]([O-])Cc1cccc(O)c1)c1cc2ccccc2o1 (stereo not drawn) [N-{5-chloro-2-[(3-hydroxybenzyl)sulfinyl]phenyl}-1-benzofuran-2-sulfonamide]
96%	56 nM	O=S(=O)(Cc1cccc(O)c1)c1ccc(Cl)cc1NS(=O)(=O)c1cc2ccccc2o1 [N-{5-chloro-2-[(3-hydroxybenzyl)sulfonyl]phenyl}-1-benzofuran-2-sulfonamide]
98%	77 nM	O=S(=O)(Nc1cc(Cl)ccc1SCc1cccc(O)c1)c1cc2ccccc2o1 [N-{5-chloro-2-[(3-hydroxybenzyl)thio]phenyl}-1-benzofuran-2-sulfonamide]
85%	651 nM	COc1cccc(CSc2ccc(Cl)cc2NS(=O)(=O)c2cc3ccccc3o2)c1 [N-{5-chloro-2-[(3-methoxybenzyl)thio]phenyl}-1-benzofuran-2-sulfonamide]
63%		O=[N+]([O-])c1cccc(CSc2ccc(Cl)cc2NS(=O)(=O)c2cc3ccccc3o2)c1 [N-{5-chloro-2-[(3-nitrobenzyl)thio]phenyl}-1-benzofuran-2-sulfonamide]
20%	2160 nM	O=[N+]([O-])c1ccc(CS(=O)(=O)c2ccc(Cl)cc2NS(=O)(=O)c2cc3ccccc3o2)cc1 [N-{5-chloro-2-[(4-nitrobenzyl)sulfonyl]phenyl}-1-benzofuran-2-sulfonamide]
82%	147 nM	O=[N+]([O-])c1ccc(CSc2ccc(Cl)cc2NS(=O)(=O)c2cc3ccccc3o2)cc1 [N-{5-chloro-2-[(4-nitrobenzyl)thio]phenyl}-1-benzofuran-2-sulfonamide]
100%	29 nM	O=S(=O)(Nc1cc(Cl)ccc1[S+]([O-])Cc1ccccn1)c1cc2ccccc2o1 (stereo not drawn) [N-{5-chloro-2-[(pyridin-2-ylmethyl)sulfinyl]phenyl}-1-benzofuran-2-sulfonamide]
100%	29 nM	O=S(=O)(Cc1ccccn1)c1ccc(Cl)cc1NS(=O)(=O)c1cc2ccccc2o1 [N-{5-chloro-2-[(pyridin-2-ylmethyl)sulfonyl]phenyl}-1-benzofuran-2-sulfonamide]
91%	35 nM	O=S(=O)(Nc1cc(Cl)ccc1SCc1ccccn1)c1cc2ccccc2o1 [N-{5-chloro-2-[(pyridin-2-ylmethyl)thio]phenyl}-1-benzofuran-2-sulfonamide]
100%	76 nM	O=S(=O)(Nc1cc(Cl)ccc1[S+]([O-])Cc1cccnc1)c1cc2ccccc2o1 (stereo not drawn) [N-{5-chloro-2-[(pyridin-3-ylmethyl)sulfinyl]phenyl}-1-benzofuran-2-sulfonamide]

Reference: patent US9663460B2, “Sulfur derivatives as chemokine receptor modulators” (ALLERGAN, INC., priority 2010, dated 2017)
